Results on 11 molecules are retold here after ChEMBL document CHEMBL1201862, “PubChem BioAssay data set” (2004).

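Five concentrations, 48 hours, 96-well plates. The concentration for 50% growth inhibition is given as GI50.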 The source made the active and inactive calls. No stated cut-off is given here; in the data, active = GI50 up to about 1.1 µM and inactive = higher.

Among the test systems are A498; CAKI-1; DU-145; HCT-116; HCT-15; HT-29; LOX IMVI; MCF7; MDA-MB-231; MDA-MB-435; MDA-N; Malme-3M; RXF 393; SF-295; SF-539; SK-MEL-2; SK-OV-3; SNB-19; SR.
Assay in all cases: DTP human tumour cell line panel, 48 h

Turning to `COc1ccc(NC(=S)Nc2cc(C)cc(C)n2)cc1`, the GI50 – broadly, the concentration at which growth is held to half of that of the control – in the assay with A498 was > 100 µM (inactive); in the assay with CAKI-1, > 100 µM (inactive); in the assay on DU-145, > 100 µM (inactive); with HCT-116, > 100 µM (inactive); in the assay with HCT-15, greater than 100 µM; in the assay with HT-29, > 100 µM (inactive). In addition, the GI50 in the assay on LOX IMVI, in the assay with MCF7, in the assay on MDA-MB-231, in the assay on MDA-MB-435, in the assay with MDA-N and in the assay on Malme-3M was > 100 µM (inactive) each time. For the same molecule, the GI50 with RXF 393, in the assay on SF-295, in the assay on SF-539, with SK-MEL-2, in the assay with SK-OV-3 and with SNB-19 was > 100 µM (inactive) throughout. In the assay on SR, the GI50 was > 100 µM (inactive).

Consider `CC(NC1=NCCO1)c1cccc([N+](=O)[O-])c1` (centres undefined), for which the GI50 in the assay with A498 is > 100 µM (inactive); with CAKI-1, > 100 µM (inactive); with DU-145 it was > 100 µM (inactive); in the assay with HCT-116, > 100 µM (inactive); in the assay with HCT-15, greater than 100 µM; in the assay on HT-29 it was > 100 µM (inactive). For the same molecule, the GI50 in the assay with LOX IMVI, in the assay with MCF7, in the assay on MDA-MB-231, in the assay on MDA-MB-435, with MDA-N and in the assay on Malme-3M was > 100 µM (inactive) in each case. Also, the GI50 in the assay with RXF 393, with SF-295, with SF-539, in the assay on SK-MEL-2, with SK-OV-3 and with SNB-19 was > 100 µM (inactive) each time. In addition, the GI50 in the assay on SR was > 100 µM (inactive).

Take `O=C1N/C(=N/N=C\c2ccccc2)N/C1=C/c1ccccc1`: the GI50 is 30.9 µM (inactive) in the assay on A498; 27.8 µM (inactive) with CAKI-1; 22.3 µM (inactive) in the assay with DU-145; 34.6 µM (inactive) in the assay on HCT-116; 32.9 µM with HCT-15; 24.9 µM (inactive) in the assay with HT-29. For the same molecule, the GI50 is 35.9 µM (inactive) with LOX IMVI; 31.5 µM (inactive) with MCF7; 47 µM (inactive) in the assay on MDA-MB-231; 17.1 µM (inactive) with MDA-MB-435; 30.6 µM (inactive) with MDA-N; 34.2 µM (inactive) in the assay with Malme-3M. Further, the GI50 in the assay on RXF 393 was 30 µM (inactive); in the assay on SF-295 it was 38.9 µM (inactive); in the assay with SF-539, 20.5 µM (inactive); with SK-MEL-2, 27.6 µM (inactive); with SK-OV-3 it was 37.7 µM (inactive); with SNB-19, 21.6 µM (inactive). In addition, in the assay on SR, the GI50 was 16.1 µM (inactive).

For `NC(=O)N/N=C(/CC1C(=O)Oc2ccccc21)c1ccccc1O` (centres undefined), the GI50 is 49.3 µM (inactive) in the assay with A498; 49 µM (inactive) in the assay on CAKI-1; 50.1 µM (inactive) in the assay on DU-145; 29.6 µM (inactive) in the assay with HCT-116; 38.4 µM in the assay on HCT-15; 69 µM (inactive) in the assay with HT-29. The GI50 in the assay on LOX IMVI is 20.4 µM (inactive); in the assay with MCF7, 48.1 µM (inactive); in the assay on MDA-MB-231, > 100 µM (inactive); in the assay with MDA-MB-435, 43.8 µM (inactive); in the assay on MDA-N it was 45.5 µM (inactive); in the assay on Malme-3M, > 100 µM (inactive). Besides, the GI50 in the assay on RXF 393 was 29.6 µM (inactive); in the assay on SF-295 it was 42.5 µM (inactive); with SF-539, 25.6 µM (inactive); in the assay on SK-MEL-2, > 100 µM (inactive); with SK-OV-3 it was 34.1 µM (inactive); with SNB-19, 60 µM (inactive). Moreover, the GI50 with SR is 18.9 µM (inactive).

Turning to `O=C(O)c1ccc(NC(c2ccccc2)c2ccc3cccnc3c2O)cc1` (centres undefined), the GI50 is 18.3 µM (inactive) in the assay on A498; 7.83 µM (inactive) in the assay with CAKI-1; 17.7 µM (inactive) in the assay on DU-145; 3.67 µM (inactive) in the assay with HCT-116; 4.95 µM in the assay with HCT-15; 5.15 µM (inactive) in the assay with HT-29. Also, the GI50 is 7.8 µM (inactive) in the assay on LOX IMVI; 4.42 µM (inactive) in the assay on MCF7; 10.8 µM (inactive) with MDA-MB-231; 16.3 µM (inactive) in the assay on MDA-MB-435; 17.5 µM (inactive) with MDA-N; 29 µM (inactive) in the assay on Malme-3M. The GI50 is 9.12 µM (inactive) in the assay on RXF 393; 4 µM (inactive) in the assay on SF-295; 5.66 µM (inactive) in the assay on SF-539; 26.1 µM (inactive) in the assay on SK-MEL-2; 13.6 µM (inactive) in the assay on SK-OV-3; 6.7 µM (inactive) in the assay with SNB-19. The GI50 in the assay with SR is 3.32 µM (inactive).

For the molecule `O=C1OCC2(CO1)CC1C=CC2C1` (centres undefined), the GI50 with A498 is > 100 µM (inactive); in the assay on CAKI-1 it was > 100 µM (inactive); with DU-145, > 100 µM (inactive); with HCT-116, > 100 µM (inactive); with HCT-15 it was greater than 100 µM; in the assay on HT-29, > 100 µM (inactive). In addition, the GI50 with LOX IMVI, in the assay with MCF7, with MDA-MB-231, with MDA-MB-435, in the assay with MDA-N and with Malme-3M was > 100 µM (inactive) each time. In addition, the GI50 in the assay on RXF 393, with SF-295, in the assay with SF-539, in the assay with SK-MEL-2, with SK-OV-3 and in the assay with SNB-19 was > 100 µM (inactive) each time. Besides, the GI50 in the assay with SR was > 100 µM (inactive).

As to `O=C(O)C1CCc2ccc3ccccc3c2C1c1cccc2ccccc12` (centres undefined), the GI50 in the assay on A498 is 30.8 µM (inactive); in the assay on CAKI-1, 68.2 µM (inactive); in the assay on DU-145, 25.8 µM (inactive); in the assay on HCT-116, 15.6 µM (inactive); in the assay on HCT-15 it was 19.4 µM; with HT-29, 17.4 µM (inactive). The GI50 is 19.5 µM (inactive) with LOX IMVI; 34.7 µM (inactive) in the assay with MCF7; 30.2 µM (inactive) in the assay with MDA-MB-231; 48.6 µM (inactive) with MDA-MB-435; 22.1 µM (inactive) with MDA-N; 22.4 µM (inactive) with Malme-3M. Also, the GI50 is 19 µM (inactive) with RXF 393; 23.9 µM (inactive) in the assay on SF-295; 23.8 µM (inactive) with SF-539; 18.2 µM (inactive) in the assay on SK-MEL-2; 36.1 µM (inactive) in the assay with SK-OV-3; 19.3 µM (inactive) in the assay with SNB-19. For the same molecule, the GI50 in the assay with SR is 20.8 µM (inactive).

Regarding `CC1CNc2ccccc2N=C1NN` (centres undefined), the GI50 was > 100 µM (inactive) with A498; > 100 µM (inactive) in the assay on CAKI-1; > 100 µM (inactive) in the assay with DU-145; > 100 µM (inactive) in the assay on HCT-116; greater than 100 µM with HCT-15; > 100 µM (inactive) with HT-29. The GI50 with LOX IMVI is > 69.8 µM (inactive); in the assay with MCF7, > 100 µM (inactive); in the assay on MDA-MB-231, > 100 µM (inactive); in the assay on MDA-MB-435 it was > 100 µM (inactive); in the assay with MDA-N, > 100 µM (inactive); in the assay on Malme-3M it was > 100 µM (inactive). Also, the GI50 in the assay with RXF 393, in the assay on SF-295, in the assay on SF-539, in the assay on SK-MEL-2, in the assay with SK-OV-3 and in the assay with SNB-19 was > 100 µM (inactive) in each case. The GI50 in the assay on SR was > 100 µM (inactive).

In the case of `COc1ccc(-c2cn3c(nc4ccccc43)c(C)n2)cc1`, the GI50 in the assay on A498 is > 76.4 µM (inactive); in the assay on CAKI-1 it was 52.1 µM (inactive); in the assay on DU-145, 51.1 µM (inactive); with HCT-116, 85.1 µM (inactive); with HCT-15, greater than 93.1 µM; with HT-29 it was > 100 µM (inactive). For the same molecule, the GI50 in the assay with LOX IMVI was > 93.5 µM (inactive); in the assay with MCF7, 12.2 µM (inactive); in the assay on MDA-MB-231, > 100 µM (inactive); in the assay with MDA-MB-435, > 96.2 µM (inactive); in the assay with MDA-N, > 100 µM (inactive); in the assay on Malme-3M it was 69.2 µM (inactive). Besides, the GI50 was 44.5 µM (inactive) in the assay with RXF 393; 55 µM (inactive) with SF-295; 76.7 µM (inactive) in the assay on SF-539; 44.9 µM (inactive) in the assay on SK-MEL-2; 10.2 µM (inactive) in the assay with SK-OV-3; 44.9 µM (inactive) with SNB-19. Further, the GI50 in the assay on SR was > 77.4 µM (inactive).

`CC(C)CC(=O)OC[n+]1ccc(-c2c(COC(=O)NC(C)C)c(COC(=O)NC(C)C)c3n2CCC3)cc1`: the GI50 in the assay on A498 is 84.3 µM (inactive); in the assay with CAKI-1, 45.2 µM (inactive); with DU-145 it was > 100 µM (inactive); in the assay on HCT-116 it was > 100 µM (inactive); in the assay with HCT-15, greater than 100 µM; with HT-29, > 100 µM (inactive). The GI50 in the assay on LOX IMVI is > 100 µM (inactive); in the assay with MCF7, 76.4 µM (inactive); in the assay on MDA-MB-231, > 100 µM (inactive); in the assay on MDA-MB-435, > 100 µM (inactive); with MDA-N, > 100 µM (inactive); in the assay on Malme-3M, > 100 µM (inactive). For the same molecule, the GI50 with RXF 393 was > 100 µM (inactive); in the assay on SF-295, > 100 µM (inactive); with SF-539 it was 27.6 µM (inactive); in the assay with SK-MEL-2 it was > 100 µM (inactive); in the assay with SK-OV-3, > 100 µM (inactive); in the assay with SNB-19, > 100 µM (inactive). In the assay with SR, the GI50 was 6.19 µM (inactive).

In the case of `Cc1ccc(NC(=O)CSc2nc(C)nc3c2sc(=S)n3-c2ccccc2)cc1`, the GI50 with A498 is > 10 µM (inactive); in the assay on CAKI-1, > 10 µM (inactive); in the assay with DU-145 it was > 10 µM (inactive); with HCT-116 it was 4.24 µM (inactive); in the assay on HCT-15, greater than 10 µM; in the assay with HT-29, 7.36 µM (inactive). Further, the GI50 with LOX IMVI is > 10 µM (inactive); with MCF7 it was > 10 µM (inactive); in the assay with MDA-MB-231, 6.3 µM (inactive); in the assay on MDA-MB-435, 4.06 µM (inactive); in the assay with MDA-N it was > 10 µM (inactive); with Malme-3M, 7.8 µM (inactive). In addition, the GI50 in the assay with RXF 393 is 1.79 µM (inactive); with SF-295, 5 µM (inactive); in the assay on SF-539, 3.01 µM (inactive); with SK-MEL-2 it was > 10 µM (inactive); in the assay with SK-OV-3, 8.2 µM (inactive); in the assay with SNB-19 it was 5.37 µM (inactive). For the same molecule, the GI50 in the assay with SR was 9.89 µM (inactive).
